# Tests used:
# Format in all cases: cell-based
# [1] = system: Chrysosporium keratinophilum; test: Agar plate disc-diffusion, antifungal activity
# Description: (§1) The agar plate disc-diffusion method was applied. […] The discs were then placed onto the surface of agar plates (nutrient agar for bacteria and Sabouraud's dextrose agar for fungi) seeded with the test organism. Each plate contained 15 mL of the agar medium, previously seeded with 0.2 mL of the broth culture of each organism pregrown for 18 hours. The plates were incubated at 37° C. for 48 hours, and 72 hours for fungi. The inhibition zones was measured in mm. Discs impregnated with DMSO were used as a control, and its inhibition zone was subtracted from the tested compound actual inhibition zone.
# Aspergillus flavus = test: Agar plate disc-diffusion, antifungal activity
# Description: as §1
# Escherichia coli = test: Agar plate disc-diffusion, antibacterial activity
# Description: as §1
# Staphylococcus aureus = test: Agar plate disc-diffusion, antibacterial activity
# Description: as §1
# Pseudomonas aeruginosa = test: Agar plate disc-diffusion, antibacterial activity
# Description: as §1
# Bacillus cereus = test: Agar plate disc-diffusion, antibacterial activity
# Description: as §1
# different microbes = test: Antimicrobial activity screening (overall statement); conditions: against different microbes (bacteria and fungi of Tables 1 and 2)
# Description: The agar plate disc-diffusion method was applied. Sterilized filter papers (6 mm in diameter) were wetted with 10 μL of a solution 2-(benzo[d]oxazol-2-yl)-N′-(isonicotinoyloxy)acetimidamide (3) to be tested, containing 10 mg/mL in DMSO, and the discs were allowed to air dry. The discs were then placed onto the surface of agar plates (nutrient agar for bacteria and Sabouraud's dextrose agar for fungi) seeded with the test organism. Each plate contained 15 mL of the agar medium, previously seeded with 0.2 mL of the broth culture of each organism pregrown for 18 hours. The plates were incubated at 37° C. for 48 hours, and 72 hours for fungi. The inhibition zones was measured in mm. Discs impregnated with DMSO were used as a control, and its inhibition zone was subtracted from the tested compound actual inhibition zone.
# [2] = A = concentration of comp. = 10,000 μL
# [3] = B = concentration of comp. = 30,000 μL
# [4] = C = concentration of comp. = 50,000 μL
SMILES,"inhibition zone [1, 2] [mm]","inhibition zone [1, 3] [mm]","inhibition zone [1, 4] [mm]",inhibition zone (Aspergillus flavus; [2]) [mm],inhibition zone (Aspergillus flavus; [3]) [mm],inhibition zone (Aspergillus flavus; [4]) [mm],inhibition zone (Escherichia coli; [2]) [mm],inhibition zone (Escherichia coli; [3]) [mm],inhibition zone (Escherichia coli; [4]) [mm],inhibition zone (Staphylococcus aureus; [2]) [mm],inhibition zone (Staphylococcus aureus; B =) [mm],inhibition zone (Staphylococcus aureus; [4]) [mm],inhibition zone (Pseudomonas aeruginosa; [2]) [mm],inhibition zone (Pseudomonas aeruginosa; [3]) [mm],inhibition zone (Pseudomonas aeruginosa; [4]) [mm],inhibition zone (Bacillus cereus; [2]) [mm],inhibition zone (Bacillus cereus; [3]) [mm],inhibition zone (Bacillus cereus; [4]) [mm],antimicrobial activities (different microbes)
"O=C(O)c1cn(C2CC2)c2cc(N3CCNCC3)c(F)cc2c1=O [Cip., ciprofloxacin, reference compound]",29,30,53,29,30,42,30,39,60,43,44,53,29,30,53,29,30,42,–
"N/C(Cc1nc2ccccc2o1)=N\OC(=O)c1ccncc1 [Compound 3, 2-(benzo[d]oxazol-2-yl)-N′-(isonicotinoyloxy)acetimidamide]",26,29,48,20,24,35,27,36,52,17,24,30,25,29,50,25,27,36,excellent antimicrobial activities
